From paper PMC8353398 (Frontiers in Pharmacology, 2021)

Experiments:
[1] = system: spontaneously hypertensive rats (SHR); assay: Invasive hemodynamics and echocardiography after 6-week infusion in SHR rats; settings: for Diastolic AP / Mean AP / Systolic AP: pressure catheter
Experimental: Male spontaneously hypertensive rats (SHR) and normotensive Wistar-Kyoto (WKY) rats were purchased from Charles River Laboratories (Kingston, ON, Canada) and maintained in a temperature-controlled room with a 12 h light/dark cycle at the animal facility of the Université de Sherbrooke. All animals were randomized with unique identification number into the different groups tested to maintain experimenter blinding. The study included six distinct SHR experimental groups (Table 1). Three groups received a standard rat chow diet containing 0.3% of NaCl (Charles River, ON, Canada) while the other three groups were fed a rat diet containing 8% of NaCl for 6 weeks (Research Diets, NJ, United States). Once a week, urine output and water intake were measured over 24 h using metabolic cages following 3 days of acclimatization. After 6 weeks of different salt intake regimens, the rats were anesthetized with 2% isoflurane for echocardiographic and hemodynamic measurements. Subsequently, blood samples were collected into tubes containing K2-EDTA and centrifuged at 2000 g for 10 min at 4°C before storing the plasma at −80°C. Plasma and urinary concentrations of sodium were determined by a vitros 750 XRC analyser (Johnson-Johnson Clinical Diagnostics; Rochester, NY). OCT-embedded sections of heart (7 µm) were generated and collagen fibers visualized by Masson’s trichrome staining. Immunohistochemistry stained slides were captured by an automated Hamamatsu Nanozoomer 2.0RS slide scanner (Hamamatsu Photonics). Heart and kidneys were also harvested, snap frozen in liquid nitrogen and stored at −80°C for mRNA expression analysis. All animal procedures were approved by our institutional ethical committee (protocol #2017–2115), in compliance with the policies and directives of the Canadian Council on Animal Care and with the ARRIVE guidelines.
Briefly, 2-chlorotrityl chloride resin (2-CTC, 120 mg) was loaded with Fmoc-L-Phe-OH (0.85 mmol/g). Fmoc protecting group was removed by treating the resin with a 20% piperidine solution. The coupling steps were carried out using [hexafluorophosphate of O-(7-azabenzotriazol-1-yl)-1,1,3,3-tetramethyluronium] (HATU, 5 equiv), amino acid (5 equiv) and DIPEA (5 equiv). The final peptide was cleaved from resin using a cocktail of trifluoroacetic acid (TFA)/triisopropylsilane (TIPS)/ethanedithiol (EDT)/water (92.5/2.5/2.5/2.5) and purified by preparative HPLC (ACE5 C18 column 250 × 21.2 mm, 5 μm spherical particle size). […] Finally, peptide was purified by preparative HPLC.
Transthoracic echocardiography was performed under isoflurane anesthesia (2%; […]; Baxter) with the Vevo 3,100 ultrasound apparatus using a MX250 transducer (FUJIFILM VisualSonics, ON, Canada). A short axis view of the left ventricle (LV) was obtained at the level of the papillary muscle and the M-mode tracing was recorded. LV End-Diastolic and End-Systolic Diameters (LVEDD; LVESD) were measured in order to calculate the fractional shortening (FS). Stroke volume was next calculated in order to assess Cardiac Output (CO) and Cardiac Index (CI). Pulse propagation velocity (PPV) was determined by ultrasound measurements of the abdominal aorta using EKV-image acquisition and analyzed with Vevo-Vasc software (FUJIFILM VisualSonics, ON, Canada). For invasive hemodynamic measurements, rats were intubated under isoflurane anesthesia (2%; […]; Baxter, IL, United States) and ventilated (SAR-1000, CWE). The right carotid artery was then cannulated with a pressure catheter (1.9F, Transonic, NY, United States) and advanced into the LV to record end-systolic and end-diastolic pressures.

rACE = assay: Peptide stability, cleavage assay with purified rat ACE; assay type: in vitro ADME; settings: purified rat ACE (final around 82 nM), 5 µL of 1 mM peptide in about 105 µL; 100 mM Tris-HCl pH 7.4, 100 mM NaCl, 10 µM ZnCl2; 37°C, 300 rpm; sampled 5-120 min; UPLC-MS SIM; repeated 3-5 times
Experimental: (§1) Rat enzymes rACE2 and rNEP were purchased from Sino Biological (Beijing, China) while rACE was obtained from EMD Millipore (Burlington, MA, United States). Enzymes were dissolved in milli-Q water (at 1 μM for rACE2/rNEP and 1.65 μM for rACE), aliquoted and stored at -80°C, as recommended by suppliers. […] Before adding the enzyme, the blank sample (t = 0 min) was prepared by removing 10 μL of this mixture and quenched with 10 μL of EDTA 0.5 M. To initiate the enzymatic reaction, 5 μL of enzyme (1 μM or 1.65 μM) was added to the mixture (final enzyme concentration around 50 nM or 82 nM). This mixture was kept in an incubator at 37°C equipped with an orbital shaker (300 rpm). Ten μL was sampled at 5, 10, 20, 60, and 120 min from this mixture, and quenched with 10 μL EDTA 0.5 M (prepared in milli-Q water and filtered) to inactivate the enzyme. […] First analyses (t = 0 min, t = 120 min) scanned m/z from 300-1200 to evaluate if peptides are cleaved and peptide fragments will be detected. After identifying the m/z of peptides and fragments, peptides were quantified using single ion mode (SIM). […] Angiotensin II was used as reference substrate in the assay with rACE2 and rNEP and angiotensin I was used as reference substrate in the assay with rACE. Experiments were repeated 3-5 times.

rACE2 = target: T1, rACE2 (Rattus norvegicus, UniProt Q5EGZ1); assay: Peptide stability, cleavage assay with purified rat ACE2; assay type: in vitro ADME; settings: purified rat ACE2 (final around 50 nM), 5 µL of 1 mM peptide in about 105 µL; 100 mM Tris-HCl pH 7.4, 100 mM NaCl, 10 µM ZnCl2; 37°C, 300 rpm; sampled 5-120 min; UPLC-MS SIM; repeated 3-5 times
T1 construct: purchased Sino Biological (Beijing, China)
Experimental: as §1

rNEP = target: T2, rNEP (Rattus norvegicus, UniProt P07861); assay: Peptide stability, cleavage assay with purified rat neprilysin; assay type: in vitro ADME; settings: purified rat NEP (final around 50 nM), 5 µL of 1 mM peptide in about 105 µL; 100 mM Tris-HCl pH 7.4, 100 mM NaCl, 10 µM ZnCl2; 37°C, 300 rpm; sampled 5-120 min; UPLC-MS SIM; repeated 3-5 times
T2 construct: purchased Sino Biological (Beijing, China)
T2 sequence (P07861 1-750): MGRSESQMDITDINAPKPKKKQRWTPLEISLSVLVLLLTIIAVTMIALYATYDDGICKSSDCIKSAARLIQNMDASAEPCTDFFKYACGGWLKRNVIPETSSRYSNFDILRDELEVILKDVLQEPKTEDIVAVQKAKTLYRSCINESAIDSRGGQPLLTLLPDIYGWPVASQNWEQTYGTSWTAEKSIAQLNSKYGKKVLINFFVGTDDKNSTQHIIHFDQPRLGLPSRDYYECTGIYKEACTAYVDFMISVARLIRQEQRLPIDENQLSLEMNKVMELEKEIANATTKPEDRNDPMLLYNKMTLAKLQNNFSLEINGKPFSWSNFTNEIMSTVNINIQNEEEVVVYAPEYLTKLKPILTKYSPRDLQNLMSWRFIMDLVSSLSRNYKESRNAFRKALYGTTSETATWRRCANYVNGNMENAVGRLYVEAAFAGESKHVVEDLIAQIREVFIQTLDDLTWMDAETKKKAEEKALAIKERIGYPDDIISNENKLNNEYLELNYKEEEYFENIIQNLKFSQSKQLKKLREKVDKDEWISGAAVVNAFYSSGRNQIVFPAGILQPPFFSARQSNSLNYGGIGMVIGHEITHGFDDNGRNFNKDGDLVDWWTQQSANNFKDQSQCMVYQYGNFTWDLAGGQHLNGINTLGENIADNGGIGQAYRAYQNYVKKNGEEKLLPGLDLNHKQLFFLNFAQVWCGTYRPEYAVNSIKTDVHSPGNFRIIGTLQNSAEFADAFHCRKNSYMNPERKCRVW
Experimental: as §1

[2] = system: spontaneously hypertensive rats (SHR); assay: Quantitative RT-PCR of pro-fibrotic and RAAS genes in heart and kidneys of treated SHR rats; assay type: in vivo, rat; settings: high-salt diet, 10 nmol/kg/hr 6-week infusion, qRT-PCR, Rpl30 reporter
Experimental: Total RNA was extracted from heart and kidneys using RNeasy Mini kits (Qiagen) according to the manufacturer’s protocol. iScript Reverse Transcription Supermix (Bio-Rad) was used to prepare cDNA from 1 µg of total RNA in 20 µL. Real-time PCR was performed on technical duplicates with cDNA diluted 30x in nuclease-free water and using SsoAdvanced™ Universal SYBR® Green Supermix (Bio-Rad) in a Mastercycler® ep RealPlex (Eppendorf). The Ribosomal protein L30 (Rpl30) of heart or kidney was used as a reporter gene and fold changes were obtained using the 2(-ΔΔCt) method ([Livak and Schmittgen, 2001]). Data were then normalized to SHR rats receiving a standard chow diet containing 0.3% of NaCl.

[3] = system: adult male Sprague-Dawley rats; settings: cecal-ligation puncture sepsis, 10 nmol/kg/hr, ref Coquerel et al., 2017; cited from earlier work
Source text: The final peptide was cleaved fr ...

[4] = SHR, high-salt diet (8% NaCl), 10 nmol/kg/hr s.c. infusion 6 weeks, mean ± SEM, n = 6
[5] = SHR, high-salt diet, 10 nmol/kg/hr s.c. infusion 6 weeks, echocardiography, mean ± SEM, n = 6
[6] = SHR, normal-salt diet (0.3% NaCl), 10 nmol/kg/hr s.c. infusion 6 weeks, mean ± SEM, n = 5
[7] = SHR, normal-salt diet, 10 nmol/kg/hr s.c. infusion 6 weeks, echocardiography, mean ± SEM, n = 5

T1 sequence (Q5EGZ1 18-805): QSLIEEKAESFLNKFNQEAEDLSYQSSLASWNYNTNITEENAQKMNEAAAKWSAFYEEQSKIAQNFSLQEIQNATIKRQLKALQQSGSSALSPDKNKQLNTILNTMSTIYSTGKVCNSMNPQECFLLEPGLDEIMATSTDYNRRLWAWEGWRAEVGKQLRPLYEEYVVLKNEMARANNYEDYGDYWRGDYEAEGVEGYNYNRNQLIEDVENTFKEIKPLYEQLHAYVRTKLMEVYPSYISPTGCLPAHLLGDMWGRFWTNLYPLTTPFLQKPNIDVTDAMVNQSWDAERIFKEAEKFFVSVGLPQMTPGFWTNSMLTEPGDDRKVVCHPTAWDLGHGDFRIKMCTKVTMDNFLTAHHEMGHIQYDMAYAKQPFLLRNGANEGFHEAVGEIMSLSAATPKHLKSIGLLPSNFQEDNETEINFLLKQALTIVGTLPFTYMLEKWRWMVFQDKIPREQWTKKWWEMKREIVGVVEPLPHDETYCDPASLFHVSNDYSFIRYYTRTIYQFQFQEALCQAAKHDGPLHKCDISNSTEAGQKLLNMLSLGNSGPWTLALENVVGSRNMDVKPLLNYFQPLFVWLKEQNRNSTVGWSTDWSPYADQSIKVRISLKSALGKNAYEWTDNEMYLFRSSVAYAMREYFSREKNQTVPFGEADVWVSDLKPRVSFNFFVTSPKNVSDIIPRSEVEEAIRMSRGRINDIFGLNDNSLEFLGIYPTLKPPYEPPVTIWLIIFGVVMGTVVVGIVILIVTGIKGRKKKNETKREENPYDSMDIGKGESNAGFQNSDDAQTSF

Compound: CSCC[C@H](NC(=O)[C@@H]1CCCN1C(=O)CNC(=O)[C@H](CCCCN)NC(=O)[C@H](Cc1cnc[nH]1)NC(=O)[C@H](CO)NC(=O)[C@H](CC(C)C)NC(=O)[C@H](CCCNC(=N)N)NC(=O)[C@@H]1CCCN1C(=O)[C@H](CCCNC(=N)N)NC(=O)[C@@H]1CCC(=O)N1)C(=O)N1CCC[C@H]1C(=O)N[C@@H](Cc1ccccc1)C(=O)O [Ape13, [Pyr^1]-Apelin-13]
- Effect on cardiovascular damage caused by hypertension per se ([1]; SHR on normal-salt intake compared to normotensive WKY, chronic treatment 6 weeks): does not prevent or reverse
- Effect on hypertension induced by a high-salt diet ([1]; SHR, high-salt diet (8% NaCl), 10 nmol/kg/hr continuous 6-week infusion): no significant effect
- Weight [1, 4]: 339 ± 10 g
- Diastolic AP [1, 4]: 131 ± 17 mmHg
- Mean AP [1, 4]: 152 ± 19 mmHg
- Systolic AP [1, 4]: 194 ± 23 mmHg
- AWTS (anterior wall thickness during systole) [1, 5]: 2.4 ± 0.1 mm
- FS (fractional shortening) [1, 5]: 37.6 ± 3.3%
- HR (heart rate) [1, 5]: 348 ± 12 bpm
- LVEDD (left ventricular end diastolic diameter) [1, 5]: 7.2 ± 0.1 mm
- LVESD (left ventricular end systolic diameter) [1, 5]: 4.5 ± 0.3 mm
- PWTS (posterior wall thickness during systole) [1, 5]: 2.6 ± 0.1 mm
- Weight [1, 6]: 321 ± 5 g
- Diastolic AP [1, 6]: 125 ± 12 mmHg
- Mean AP [1, 6]: 143 ± 14 mmHg
- Systolic AP [1, 6]: 179 ± 19 mmHg
- APPV (aortic pulse propagation velocity) [1, 7]: 4.5 ± 0.4 m/s
- AWTS (anterior wall thickness during systole) [1, 7]: 2.3 ± 0.1 mm
- FS (fractional shortening) [1, 7]: 39.8 ± 1.1%
- HR (heart rate) [1, 7]: 372 ± 4 bpm
- LVEDD (left ventricular end diastolic diameter) [1, 7]: 6.3 ± 0.4 mm
- LVESD (left ventricular end systolic diameter) [1, 7]: 3.8 ± 0.3 mm
- PWTS (posterior wall thickness during systole) [1, 7]: 2.3 ± 0.1 mm
- Cleavage by ACE within 2 h (rACE): only partially
- Cleavage by ACE2 within 2 h (rACE2): rapidly and fully hydrolyzed
- Cleavage by neprilysin within 2 h (rNEP): rapidly and fully hydrolyzed
- Expression of pro-fibrotic Col1a, Acta1 and Tgfb2 genes in kidneys [2]: only reduced the Tgfb2 mRNA level
- Survival [3]: improved the survival
